Measured values as given in ChEMBL document CHEMBL5728681, “Macrocyclic compounds as TRK kinase inhibitors and uses thereof” (2021).

Target: High affinity nerve growth factor receptor (Homo sapiens, UniProt P04629)
Experiment: HotSpot Assay: The HotSpot assay platform was used to measure kinase/inhibitor interactions as described in Anastassiadis et al., Nat Biotechnol. 29:1039-45, 2011. In brief, for each reaction, kinase and substrate were mixed in a buffer containing 20 mM HEPES (pH 7.5), 10 mM MgCl2, 1 mM EGTA, 0.02% Brij35, 0.02 mg/mL BSA, 0.1 mM Na3VO4, 2 mM DTT, and 1% DMSO. Compounds were then added to each reaction mixture. After a 20-min incubation, ATP (Sigma-Aldrich) and [γ-33P] ATP (PerkinElmer) were added at a final total concentration of 100 μM. Reactions were carried out at room temperature for 2 h and spotted onto P81 ion exchange cellulose chromatography paper (Whatman). Filter paper was washed in 0.75% phosphoric acid to remove unincorporated ATP. The percent remaining kinase activity relative to a vehicle-containing (DMSO) kinase reaction was calculated for each kinase/inhibitor pair.

Sequence of High affinity nerve growth factor receptor (P04629 whole entry): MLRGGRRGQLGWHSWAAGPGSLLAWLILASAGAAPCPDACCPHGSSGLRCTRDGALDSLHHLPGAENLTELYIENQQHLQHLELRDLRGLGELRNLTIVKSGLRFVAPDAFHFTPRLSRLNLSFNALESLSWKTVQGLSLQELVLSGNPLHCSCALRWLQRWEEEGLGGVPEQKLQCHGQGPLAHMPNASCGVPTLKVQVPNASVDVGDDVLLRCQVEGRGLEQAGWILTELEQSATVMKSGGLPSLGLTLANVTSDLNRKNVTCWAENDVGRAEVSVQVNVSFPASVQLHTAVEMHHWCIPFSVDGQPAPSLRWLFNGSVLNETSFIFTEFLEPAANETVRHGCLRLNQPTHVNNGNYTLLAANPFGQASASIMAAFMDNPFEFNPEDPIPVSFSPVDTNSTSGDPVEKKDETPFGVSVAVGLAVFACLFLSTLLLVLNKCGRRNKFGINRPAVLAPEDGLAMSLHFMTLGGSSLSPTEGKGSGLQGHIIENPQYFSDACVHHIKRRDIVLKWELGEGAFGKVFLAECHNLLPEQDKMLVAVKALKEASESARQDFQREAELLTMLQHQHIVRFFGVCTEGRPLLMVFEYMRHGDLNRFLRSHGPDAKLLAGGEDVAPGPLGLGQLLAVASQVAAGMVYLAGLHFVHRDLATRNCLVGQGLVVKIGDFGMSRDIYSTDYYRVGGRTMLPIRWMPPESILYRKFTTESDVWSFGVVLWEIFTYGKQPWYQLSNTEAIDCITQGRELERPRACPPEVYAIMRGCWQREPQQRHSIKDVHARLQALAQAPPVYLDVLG

IC50: < 100 nM
SMILES: C=C1c2ncc(F)cc2[C@H]2CCCN2c2ccn3ncc(c3n2)C(=O)N[C@@H]1C
